In article PMC9207808 (ACS Chemical Biology, 2022):
Where “and” joins values, the source holds several entries; their conditions need not be identical. Equal entries are not always repeated. Where two headings read alike, the source gives them in different places. Residues, ends and D or L forms follow the SMILES beside them. No end group written: not given here.

What was measured:
DocSTm [1] = test: Differential scanning fluorimetry (thermal stabilisation of Doc); assay type: binding, S. Typhimurium; settings: for melting temperature shift ΔTm: DSF, DocSTm 5 μM, analyte 50 μM, Tm with analyte minus Tm of free DocSTm (42.9 ± 0.9 °C), SYPRO Orange, 20 mM K2HPO4, 50 mM (NH4)2SO4, pH 8.0, triplicate; for Average Tm / Tm: DocSTm 5 µM + 50 µM binder; for Average Tm: average of 3 replicates
Summary of the method: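 Thermal shift of 5 μM Doc in 20 mM K2HPO4, 50 mM (NH4)2SO4, pH 8.0 with 3× SYPRO Orange, heated from 25 to 95 °C in a qPCR instrument, in triplicate. Melting temperatures from Boltzmann sigmoid fits of the transition region.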

DocSTm [2] = test: Surface plasmon resonance binding to immobilised Doc; parameters: species or system S. Typhimurium; settings: for koff × 10^-6 / kon × 10^6: 1:1 kinetic fit, mean ± SD of at least 3 replicates; for kon × 10^6: single-cycle kinetics (multicycle for PhdSTm1-73); for Half-life of the complex: t1/2 = ln2 / koff; for affinity to DocSTm greater than that of peptides 7, 10 and 14: SPR Kd ratio; for fold decrease in affinity (given as decrease/loss in Kd) compared with peptide 1: SPR Kd relative to wild-type peptide 1
Summary of the method: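 Doc captured on an NTA chip at 22 °C in 10 mM HEPES, 500 mM NaCl, 50 μM EDTA, 0.005% TWEEN 20, pH 8.0. Analytes injected as 80 s pulses at 30 μL/min in multicycle or single-cycle kinetics.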

DocSTm [3] = test: Dot blot phosphorylation assay (EF-Tu phosphorylation by Doc); assay type: biochemical, S. Typhimurium; settings: α-pThr, DocSTm 1 μM, EF-TuSTm 3 μM, ATP 1 mM, inhibitor 10 μM to 5 nM (3-fold dilutions), 16 h at RT
Summary of the method: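 Doc-mediated phosphorylation of EF-Tu was run for 16 h at RT, then the samples were spotted on nitrocellulose. Phospho-EF-Tu was detected with a rabbit monoclonal anti-phosphothreonine antibody and an HRP anti-rabbit secondary, read by chemiluminescence.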

[4] = system: S. Typhimurium (14028) Δphd-doc::Km strains coexpressing DocSTm; test: Growth rescue experiment in S. Typhimurium; assay type: cell-based; settings: coexpression of DocSTm (pBAD33, arabinose) and Phd construct (pCA24N, basal expression); OD600 over time, M9 minimal medium; average of three independent experiments
Procedure: The cotransformations above were also performed with an empty pBAD33 plasmid, as a control for the absence of DocSTm expression.
For the growth rescue experiment, overnight (1% tryptone, 0.5% yeast extract, 0.5% NaCl, 1% glucose, 100 μg/mL of carbenicillin, and 34 μg/mL of chloramphenicol) cultures of the generated S. Typhimurium strains were diluted to an OD600 of approximately 0.006 into fresh M9 minimal medium supplemented with 0.5% or 1% arabinose, 0.4% glycerol, 0.4% casamino acids, 100 μg/mL of carbenicillin, and 34 μg/mL of chloramphenicol. Cell growth at a given time was monitored at OD600 with a Genesys 140 Visible Spectrophotometer (Thermo Scientific).

[5] = biological target: Doc1-122–His6 (DocSTm toxin) (Salmonella typhimurium); test: SPR; Biacore S200; Doc-His6 captured on a Series S NTA chip (200-400 RU); peptide as analyte, single-cycle kinetics, six concentrations (3-fold dilutions), 30 uL/min; 22 C; 10 mM HEPES, 500 mM NaCl, 50 uM EDTA, 0.005% TWEEN 20, pH 8.0; kinetic 1:1 fit
[6] = biological target: Doc1-122–His6 (DocSTm toxin) (Salmonella typhimurium); test: as above; remark: listed apart in the source
[7] = biological target: Doc toxin of Salmonella enterica serovar Typhimurium (DocSTm) (Salmonella enterica serovar Typhimurium); test: SPR; DocSTm immobilised on a Series S NTA chip (150 nM, 200-400 RU); analytes in single-cycle kinetics, typically six concentrations, kinetic 1:1 fit; 22 °C; 10 mM HEPES, 500 mM NaCl, 50 μM EDTA, 0.005% TWEEN 20, pH 8.0
[8] = SPR, kinetic fit, KD calculated from mean koff and kon, SD propagated, 22 °C, pH 8.0

Row | Molecule | melting temperature shift ΔTm (DocSTm [1]) [°C] | Average Tm (DocSTm [1]) [°C] | Tm (DocSTm [1]; replicate 1) [°C] | Tm (DocSTm [1]; replicate 2) [°C] | Tm (DocSTm [1]; replicate 3) [°C] | Kd (DocSTm [2]; SPR kinetic fit, replicate 1) [nM] | Kd (DocSTm [2]; SPR kinetic fit, replicate 2) [nM] | Kd (DocSTm [2]; SPR kinetic fit, replicate 3) [nM] | koff × 10^-6 (DocSTm [2]; SPR, 22 °C, pH 8.0) | kon × 10^6 (DocSTm [2]; SPR, 22 °C, pH 8.0) | Kd (DocSTm [2]; [8]) [nM] | Half-life of the complex (DocSTm [2]) [min] | inhibition of EF-TuSTm phosphorylation by DocSTm (in words) (DocSTm [3]) | rescue of Salmonella growth from DocSTm-induced growth inhibition (in words) [4] | affinity to DocSTm greater than that of peptides 7, 10 and 14 (DocSTm [2]) | fold decrease in affinity (given as decrease/loss in Kd) compared with peptide 1 (DocSTm [2]) | further results
1 | CC[C@H](C)[C@H](NC(=O)[C@H](C)NC(=O)[C@H](C)NC(=O)[C@H](Cc1ccccc1)NC(=O)[C@H](CCC(=O)O)NC(=O)[C@H](C)NC(=O)[C@H](CC(=O)O)NC(=O)[C@H](CCSC)NC(=O)[C@H](Cc1c[nH]c2ccccc12)NC(C)=O)C(=O)N[C@@H](CCSC)C(=O)N[C@@H](C)C(=O)N[C@H](C(=O)N[C@@H](Cc1c[nH]cn1)C(=O)NCC(=O)N[C@@H](CC(N)=O)C(=O)N[C@@H](CCC(=O)O)C(=O)N[C@@H](CC(C)C)C(=O)N[C@@H](CCCNC(=N)N)C(=O)N[C@@H](CCC(=O)O)C(=O)N[C@@H](CC(C)C)C(=O)N[C@@H](C)C(=O)N[C@@H](CC(=O)O)C(=O)N[C@@H](CCCCN)C(=O)O)C(C)C [peptide 4] (Ac-WMDAEFAAIMAVHGNELRELADK-OH; C-terminus assumed) | 26.2 ± 0.9 | 69.1 ± 0.2 | 69.0 | 69.3 | 69.1 | 0.0128 | 0.0166 | 0.0101 | 62 ± 17 ×10^-6 s-1 | 4.733 ± 0.155 ×10^6 M-1 s-1 | 0.013 | 186 ± 48 | inhibited DocSTm at similar concentrations to peptide 1 | restored bacterial growth following similar kinetics as the wild-type sequence |  |  | improvement in koff compared with 1 (DocSTm [2]; SPR): ~1.5 fold; improvement in kon compared with 1 (DocSTm [2]; SPR): ~4 fold; gain of affinity compared to peptide 1 (DocSTm [2]; SPR Kd relative to peptide 1): greater than 5 fold
2 | CC[C@H](C)[C@H](NC(=O)[C@H](C)NC(=O)[C@H](C)NC(=O)[C@H](C)NC(=O)[C@H](CCC(=O)O)NC(=O)[C@H](CC(=O)O)NC(=O)[C@H](CC(=O)O)NC(=O)[C@H](CCSC)NC(=O)[C@H](Cc1c[nH]c2ccccc12)NC(C)=O)C(=O)N[C@@H](CCSC)C(=O)N[C@@H](C)C(=O)N[C@H](C(=O)N[C@@H](Cc1c[nH]cn1)C(=O)NCC(=O)N[C@@H](CC(N)=O)C(=O)N[C@@H](CCC(=O)O)C(=O)N[C@@H](CC(C)C)C(=O)N[C@@H](CCCNC(=N)N)C(=O)N[C@@H](CCC(=O)O)C(=O)N[C@@H](CC(C)C)C(=O)N[C@@H](C)C(=O)N[C@@H](CC(=O)O)C(=O)N[C@@H](CCCCN)C(=O)O)C(C)C [peptide 6] (Ac-WMDDEAAAIMAVHGNELRELADK-OH; C-terminus assumed) | 21.1 ± 1.0 | 64.0 ± 0.5 | 64.5 | 64.1 | 63.5 | 1 | 0.919 | 0.745 | 843 ± 231 ×10^-6 s-1 | 0.989 ± 0.434 ×10^6 M-1 s-1 | 0.852 | 13.8 ± 3.6 | among the poorest inhibitors of EF-TuSTm phosphorylation | not able to counteract DocSTm-induced growth inhibition of Salmonella | at least 12 fold | 8- to 30 fold | 
3 | CC[C@H](C)[C@H](NC(=O)[C@H](C)NC(=O)[C@H](C)NC(=O)[C@H](Cc1ccccc1)NC(=O)[C@H](CCC(=O)O)NC(=O)[C@H](CC(=O)O)NC(=O)[C@H](CC(=O)O)NC(=O)[C@H](CCSC)NC(=O)[C@H](Cc1c[nH]c2ccccc12)NC(C)=O)C(=O)N[C@@H](CCSC)C(=O)N[C@@H](C)C(=O)N[C@H](C(=O)N[C@@H](Cc1c[nH]cn1)C(=O)NCC(=O)N[C@@H](CC(N)=O)C(=O)N[C@@H](CCC(=O)O)C(=O)N[C@@H](CC(C)C)C(=O)N[C@@H](CCCNC(=N)N)C(=O)N[C@@H](CCC(=O)O)C(=O)N[C@@H](C)C(=O)N[C@@H](C)C(=O)N[C@@H](CC(=O)O)C(=O)N[C@@H](CCCCN)C(=O)O)C(C)C [peptide 17] (Ac-WMDDEFAAIMAVHGNELREAADK-OH; C-terminus assumed) | 15.2 ± 1.0 | 58.0 ± 0.4 | 58.5 | 57.9 | 57.8 | 2.1 | 1.98 | 1.02 | 5967 ± 404 ×10^-6 s-1 | 3.837 ± 1.398 ×10^6 M-1 s-1 | 1.55 ± 0.58 | 1.92 ± 0.12 | among the poorest inhibitors of EF-TuSTm phosphorylation | not able to counteract DocSTm-induced growth inhibition of Salmonella | at least 12 fold | 8- to 30 fold | 
4 | peptide 4 (PhdSTm52-73-D54A) |  |  |  |  |  |  |  |  |  |  |  |  |  |  |  |  | koff [5]: 6.2e-05 s⁻¹; kon [5]: 4.73e+06 M⁻¹ s⁻¹; Kd [6]: 0.0128 nM and 0.0166 nM and 0.0101 nM; koff [6]: 8.12e-05 s⁻¹ and 4.76e-05 s⁻¹ and 5.84e-05 s⁻¹; kon [6]: 4.89e+06 M⁻¹ s⁻¹ and 4.73e+06 M⁻¹ s⁻¹ and 4.58e+06 M⁻¹ s⁻¹
5 | Ac-WMDDEAAAIMAVHGNELRELADK [peptide 6 (Phd 52-73 F56A)] |  |  |  |  |  |  |  |  |  |  |  |  |  |  |  |  | Kd [7]: 0.852 nM
